Results reported in paper PMC8112869, “Therapeutic inhibition of keratinocyte TRPV3 sensory channel by local anesthetic dyclonine” (eLife, 2021).

Tests used:
[1] = system: mouse dorsal root ganglia (DRG) and trigeminal ganglia (TG) neurons; assay: Current-clamp recording of mouse DRG and TG neurons; assay type: cell-based; details: dyclonine 10 μM
human TRPV3 (hTRPV3) = target: T1, human TRPV3 (hTRPV3) (Homo sapiens, UniProt Q8NET8); assay: Whole-cell recording of 2-APB-evoked currents in hTRPV3-expressing HEK 293T cells; assay type: cell-based
T1 construct: expressed in transfected cells; host or cells: HEK 293T
From the text: (§1) The WT mouse TRPV3 (mTRPV3), human TRPV3 (hTRPV3), rat TRPV1, rat TRPV2, rat TRPM8, and mouse TRPA1 cDNAs were generously provided by Dr. Feng Qin (State University of New York at Buffalo, Buffalo, USA). The GFP-mTRPV3 WT and the mutants (mTRPV3-G573S and mTRPV3-G573C) in pcDNA4/TO vector were gifts from Dr. Michael X Zhu (The University of Texas Health Science Center at Houston, Houston, USA). The WT fTRPV3 was kindly provided by Dr. Makoto Tominaga (Department of Physiological Sciences, SOKENDAI, Okazaki, Japan). All mutations were made using the overlap-extension polymerase chain reaction method as previously described ([Tian et al., 2019]). The resulting mutations were then verified by DNA sequencing. […]
(§2) Conventional whole-cell and excised patch-clamp recording methods were used. […] For a subset of recordings, currents were amplified using an Axopatch 200B amplifier (Molecular Devices, Sunnyvale, CA) and recorded through a BNC-2090/MIO acquisition system (National Instruments, Austin, TX) using QStudio developed by Dr. Feng Qin at State University of New York at Buffalo. […] As determined by the conductance tests, the solution around a patch under study was fully controlled by the application of a flow rate of 100 μl/min or greater. […]

[2] = system: TRPV3+/+ and TRPV3-/- mice; assay: Hot plate (55°C) paw withdrawal latency, Hargreaves test; assay type: in vivo, mouse
Description: All tests were conducted during the light phase of the light/dark cycle by a trained observer blind to the genotype. Mice were habituated to the testing room for 60 min prior to the behavioral tests unless otherwise stated. Hargreaves test was performed as described previously ([Wang et al., 2018]). All behavioral experiments were conducted in a double-blind manner. For measurement of thermal hyperalgesia, animals were placed individually, 30 min after injection, on a hot plate (Bioseb, Chaville, France) with the temperature adjusted to 55°C. The withdrawal latency of each hind paw was determined until nocifensive reaction appeared (licking foot). Right hind paws of mice were injected intraplantarly with 10 μl normal saline (0.9% NaCl). Left hind paws of mice were injected intraplantarly with 10 μl normal saline (supplemented with 10 or 50 μM dyclonine).

C57B/6 mice = assay: Carvacrol-induced itch-scratching behavior in mice; assay type: in vivo, mouse
Description: To assess itch-scratching behaviors, the hair of the rostral part of the mouse’s right neck was shaved using an electric hair clipper 24 hr before the start of experiments. Trpv3^-/- mice have been described previously ([Wang et al., 2021]). Scratching behaviors were recorded on video. The number of itch-scratching bouts was counted through video playback analysis. One scratching bout was defined as an episode in which a mouse lifted its right hind limb to the injection site and scratched continuously for any time length until this limb was returned to the floor or mouth ([Wilson et al., 2013]). All behavioral experiments were conducted in a double-blind manner. […] [Sun and Dong, 2016]).

TRPV1 = target: T2, TRPV1 (Rattus norvegicus, UniProt O35433); assay: Whole-cell recording of capsaicin-activated TRPV1 in HEK 293T cells; assay type: cell-based
T2 construct: expressed in transfected cells; host or cells: HEK 293T
From the text: as §1, §2

TRPV3 I637A = target: T3, TRPV3 I637A (Mus musculus, UniProt Q8K424, I637A); assay: Whole-cell recording of TRPV3 mutant I637A in HEK 293T cells; assay type: cell-based; details: 2-APB (1 mM)-evoked, –60 mV, read-out: IC50 for inhibition of TRPV3 mutant
T3 construct: expressed in transfected cells; host or cells: HEK 293T
From the text: as §1, §2

TRPV2 = target: T4, TRPV2 (Rattus norvegicus, UniProt Q9WUD2); assay: Whole-cell recording of 2-APB-activated TRPV2 in HEK 293T cells; assay type: cell-based
T4 construct: expressed in transfected cells; host or cells: HEK 293T
From the text: as §1, §2

T1 sequence (Q8NET8 whole entry): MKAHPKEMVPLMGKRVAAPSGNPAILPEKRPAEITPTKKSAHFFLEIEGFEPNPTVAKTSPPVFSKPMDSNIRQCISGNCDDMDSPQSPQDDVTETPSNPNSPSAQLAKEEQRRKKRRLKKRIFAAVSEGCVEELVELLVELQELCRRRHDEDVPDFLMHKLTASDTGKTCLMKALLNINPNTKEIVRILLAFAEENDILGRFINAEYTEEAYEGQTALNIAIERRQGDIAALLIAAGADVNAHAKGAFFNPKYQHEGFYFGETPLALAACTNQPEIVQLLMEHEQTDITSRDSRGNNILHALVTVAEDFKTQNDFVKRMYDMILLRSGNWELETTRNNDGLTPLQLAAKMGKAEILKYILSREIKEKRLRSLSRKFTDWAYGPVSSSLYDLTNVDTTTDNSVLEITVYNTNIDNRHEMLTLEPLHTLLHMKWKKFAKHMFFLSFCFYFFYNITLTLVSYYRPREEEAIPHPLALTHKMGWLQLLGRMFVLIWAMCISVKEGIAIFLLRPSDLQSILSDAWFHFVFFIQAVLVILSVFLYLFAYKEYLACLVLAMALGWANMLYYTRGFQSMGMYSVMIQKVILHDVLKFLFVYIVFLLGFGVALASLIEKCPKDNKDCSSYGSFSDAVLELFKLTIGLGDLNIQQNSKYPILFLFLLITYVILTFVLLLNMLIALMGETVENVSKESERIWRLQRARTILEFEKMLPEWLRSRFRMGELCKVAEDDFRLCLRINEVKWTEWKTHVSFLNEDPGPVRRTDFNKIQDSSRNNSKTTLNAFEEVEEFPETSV
T4 sequence (Q9WUD2 whole entry): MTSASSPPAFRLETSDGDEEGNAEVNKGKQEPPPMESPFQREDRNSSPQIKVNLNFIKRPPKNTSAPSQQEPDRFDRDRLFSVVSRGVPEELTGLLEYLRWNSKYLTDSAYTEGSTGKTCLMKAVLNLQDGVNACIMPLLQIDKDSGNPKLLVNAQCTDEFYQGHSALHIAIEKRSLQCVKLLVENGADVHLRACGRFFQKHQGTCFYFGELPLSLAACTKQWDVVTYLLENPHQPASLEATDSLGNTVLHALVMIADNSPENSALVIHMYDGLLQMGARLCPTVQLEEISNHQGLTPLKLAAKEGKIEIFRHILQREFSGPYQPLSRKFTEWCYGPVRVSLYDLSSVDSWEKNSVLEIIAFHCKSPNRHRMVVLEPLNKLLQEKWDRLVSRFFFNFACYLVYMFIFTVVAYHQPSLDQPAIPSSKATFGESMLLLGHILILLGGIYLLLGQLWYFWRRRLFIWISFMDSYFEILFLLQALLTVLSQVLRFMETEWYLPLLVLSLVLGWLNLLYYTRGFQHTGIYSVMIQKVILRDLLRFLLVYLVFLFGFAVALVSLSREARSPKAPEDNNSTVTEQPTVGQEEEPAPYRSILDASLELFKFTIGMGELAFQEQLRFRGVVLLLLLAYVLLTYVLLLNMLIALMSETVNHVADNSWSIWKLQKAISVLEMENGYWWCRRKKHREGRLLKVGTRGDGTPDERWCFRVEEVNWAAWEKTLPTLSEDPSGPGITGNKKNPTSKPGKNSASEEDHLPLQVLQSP
T2 sequence (O35433 whole entry): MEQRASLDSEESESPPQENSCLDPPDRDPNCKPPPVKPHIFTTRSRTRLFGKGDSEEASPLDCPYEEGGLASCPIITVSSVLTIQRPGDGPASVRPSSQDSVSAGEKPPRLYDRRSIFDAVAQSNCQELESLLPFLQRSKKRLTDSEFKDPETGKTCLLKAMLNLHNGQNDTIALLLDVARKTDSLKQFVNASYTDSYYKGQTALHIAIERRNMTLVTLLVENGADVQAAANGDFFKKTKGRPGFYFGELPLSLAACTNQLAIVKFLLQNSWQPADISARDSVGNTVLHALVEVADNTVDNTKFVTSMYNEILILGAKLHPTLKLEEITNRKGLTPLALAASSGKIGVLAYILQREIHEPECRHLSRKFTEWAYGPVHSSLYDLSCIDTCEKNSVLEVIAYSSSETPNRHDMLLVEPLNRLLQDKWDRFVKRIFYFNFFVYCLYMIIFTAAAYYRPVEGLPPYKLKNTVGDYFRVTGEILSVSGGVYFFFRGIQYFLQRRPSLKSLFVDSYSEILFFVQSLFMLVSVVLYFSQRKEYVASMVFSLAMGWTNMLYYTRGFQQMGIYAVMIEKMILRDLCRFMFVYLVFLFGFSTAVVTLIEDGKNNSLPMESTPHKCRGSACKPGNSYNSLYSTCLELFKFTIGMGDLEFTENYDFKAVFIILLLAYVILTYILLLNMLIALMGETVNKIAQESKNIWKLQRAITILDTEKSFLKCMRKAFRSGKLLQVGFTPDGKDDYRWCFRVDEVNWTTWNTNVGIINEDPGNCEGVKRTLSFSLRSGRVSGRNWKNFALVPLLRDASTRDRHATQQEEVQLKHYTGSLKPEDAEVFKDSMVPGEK
T3 sequence (Q8K424 whole entry I637A): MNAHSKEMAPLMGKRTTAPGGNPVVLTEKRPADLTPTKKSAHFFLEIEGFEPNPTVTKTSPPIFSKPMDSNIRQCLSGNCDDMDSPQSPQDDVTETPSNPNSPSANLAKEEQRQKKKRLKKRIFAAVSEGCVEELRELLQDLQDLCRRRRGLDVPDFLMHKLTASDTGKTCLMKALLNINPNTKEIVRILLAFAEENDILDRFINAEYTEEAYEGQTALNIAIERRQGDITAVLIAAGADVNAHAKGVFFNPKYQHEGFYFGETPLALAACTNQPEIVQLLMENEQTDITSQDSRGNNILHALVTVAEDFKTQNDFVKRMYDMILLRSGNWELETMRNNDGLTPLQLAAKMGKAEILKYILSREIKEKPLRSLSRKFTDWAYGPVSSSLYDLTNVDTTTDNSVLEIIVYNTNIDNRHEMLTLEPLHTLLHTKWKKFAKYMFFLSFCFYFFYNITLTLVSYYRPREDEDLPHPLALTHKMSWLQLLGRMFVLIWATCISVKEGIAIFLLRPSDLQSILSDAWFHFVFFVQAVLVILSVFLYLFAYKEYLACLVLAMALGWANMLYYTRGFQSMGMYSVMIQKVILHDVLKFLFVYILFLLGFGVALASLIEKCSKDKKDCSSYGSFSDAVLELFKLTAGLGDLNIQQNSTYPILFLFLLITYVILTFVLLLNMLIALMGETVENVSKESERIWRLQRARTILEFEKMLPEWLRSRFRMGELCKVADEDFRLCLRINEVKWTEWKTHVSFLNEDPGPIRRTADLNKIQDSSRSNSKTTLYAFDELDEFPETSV

With CCCCOc1ccc(C(=O)CCN2CCCCC2)cc1 [dyclonine] the “effect on electrophysiological responses” value ([1]; DRG and TG neurons) was “little effect”, the “resting membrane potential (RMP)” value ([1]; DRG neurons) was “–45 ± 0.9 mV” and the “resting membrane potential (RMP)” value ([1]; TG neurons) was “–47.2 ± 1.9 mV”. For the same compound, the “Hill coefficient nH” value (human TRPV3 (hTRPV3)) was 1.91 ± 0.14, the IC50 (human TRPV3 (hTRPV3); 2-APB (100 μM)-evoked, –60 mV, read-out: IC50 on blocking of hTRPV3) was 16.2 ± 0.72 µM and the “paw withdrawal latencies (PWL)” value ([2]; TRPV3+/+ mice, intraplantar 10 μM dyclonine) was 18.08 ± 0.03 s. For the same compound, the “paw withdrawal latencies (PWL)” value ([2]; TRPV3+/+ mice, intraplantar 50 μM dyclonine) was 18.82 ± 0.42 s, the “paw withdrawal latencies (PWL)” value ([2]; TRPV3-/- mice, intraplantar 10 μM dyclonine) was 18.23 ± 0.52 s and the “paw withdrawal latencies (PWL)” value ([2]; TRPV3-/- mice, intraplantar 50 μM dyclonine) was 18.61 ± 0.46 s. The “scratching bouts over 30 min” value (C57B/6 mice; 50 μl dyclonine 1 μM intradermal 30 min before carvacrol (0.1%, 50 μl)) was 130.0 ± 20.3, the “scratching bouts over 30 min” value (C57B/6 mice; 50 μl dyclonine 10 μM intradermal 30 min before carvacrol (0.1%, 50 μl)) was 82.0 ± 15.0 and the “scratching bouts over 30 min” value (C57B/6 mice; 50 μl dyclonine 50 μM intradermal 30 min before carvacrol (0.1%, 50 μl)) was 18.0 ± 8.0. For the same compound, the “Hill coefficient nH” value (TRPV1) was 2.0 ± 0.31, the “reduction in current amplitude” value (TRPV1; 10 μM dyclonine, capsaicin-activated) was 2% ± 1% and the IC50 (TRPV3 I637A) was 6.1 ± 0.43 µM. The “Hill coefficient nH” value (TRPV2) was 2.9 ± 0.50 and the “reduction in current amplitude” value (TRPV2; 10 μM dyclonine, 2-APB-activated) was 6% ± 1%.
